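Five compound concentrations were applied to cells in 96-well plates for 48 hours; endpoints were derived by simple linear interpolation of the resulting dose-response curve. GI50: concentration for 50% inhibition of growth.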 The source made the active and inactive calls. Cut-off read from the data, not from the text of the source: active = GI50 up to about 1.1 µM and inactive = higher.
Legend:
Test in all cases: NCI tumour cell line growth inhibition, 48 h
MDA-MB-435 = tested on: MDA-MB-435
NCI-H226 = tested on: NCI-H226
UO-31 = tested on: UO-31
A498 = tested on: A498
EKVX = tested on: EKVX
HOP-62 = tested on: HOP-62
SK-OV-3 = tested on: SK-OV-3
U-251 = tested on: U-251
OVCAR-3 = tested on: OVCAR-3
IGROV-1 = tested on: IGROV-1
SNB-75 = tested on: SNB-75
HOP-92 = tested on: HOP-92
CAKI-1 = tested on: CAKI-1
SF-539 = tested on: SF-539
ACHN = tested on: ACHN
OVCAR-5 = tested on: OVCAR-5
NCI-H460 = tested on: NCI-H460
SK-MEL-2 = tested on: SK-MEL-2
NCI-H23 = tested on: NCI-H23
SW-620 = tested on: SW-620
MDA-MB-231 = tested on: MDA-MB-231
SF-295 = tested on: SF-295
DU-145 = tested on: DU-145
HCT-15 = tested on: HCT-15
LOX IMVI = tested on: LOX IMVI
BT-549 = tested on: BT-549
Hs-578T = tested on: Hs-578T
PC-3 = tested on: PC-3
UACC-62 = tested on: UACC-62
TK-10 = tested on: TK-10
K562 = tested on: K562
RXF 393 = tested on: RXF 393
SK-MEL-5 = tested on: SK-MEL-5
T47D = tested on: T47D
HT-29 = tested on: HT-29
SN12C = tested on: SN12C
MCF7 = tested on: MCF7
KM12 = tested on: KM12
NCI/ADR-RES = tested on: NCI/ADR-RES
OVCAR-8 = tested on: OVCAR-8
COLO 205 = tested on: COLO 205
NCI-H522 = tested on: NCI-H522
HCC 2998 = tested on: HCC 2998
HL-60 = tested on: HL-60
SK-MEL-28 = tested on: SK-MEL-28
HCT-116 = tested on: HCT-116
CCRF-CEM = tested on: CCRF-CEM
M14 = tested on: M14
UACC-257 = tested on: UACC-257
SNB-19 = tested on: SNB-19
RPMI-8226 = tested on: RPMI-8226
OVCAR-4 = tested on: OVCAR-4
SR = tested on: SR
MDA-N = tested on: MDA-N
A549 = tested on: A549
MOLT-4 = tested on: MOLT-4
786-0 = tested on: 786-0
SF-268 = tested on: SF-268
Malme-3M = tested on: Malme-3M

Cc1ccc2nc3sc(=O)sc3nc2c1 [CHINOMETHIONAT] was tested, and the GI50 (MDA-MB-435) was 16.1 µM (inactive), the GI50 (NCI-H226) was 14.3 µM (inactive) and the GI50 (UO-31) was 15.4 µM (inactive). The GI50 (A498) was 7.48 µM (inactive), the GI50 (EKVX) was 14.2 µM (inactive) and the GI50 (HOP-62) was 16.6 µM (inactive). For the same compound, the GI50 (SK-OV-3) was 19.6 µM (inactive), the GI50 (U-251) was 17.1 µM (inactive) and the GI50 (OVCAR-3) was 14.5 µM (inactive). For the same compound, the GI50 (IGROV-1) was 16.1 µM (inactive), the GI50 (SNB-75) was 19.6 µM (inactive) and the GI50 (HOP-92) was 15.5 µM (inactive). The GI50 (CAKI-1) was 16.4 µM (inactive), the GI50 (SF-539) was 18.7 µM (inactive) and the GI50 (ACHN) was 15.2 µM (inactive). The GI50 (OVCAR-5) was 16.7 µM (inactive), the GI50 (NCI-H460) was 12.9 µM (inactive) and the GI50 (SK-MEL-2) was 14.4 µM (inactive). The GI50 (NCI-H23) was 19.4 µM (inactive), the GI50 (SW-620) was 24.1 µM (inactive) and the GI50 (MDA-MB-231) was 17.3 µM (inactive). For the same compound, the GI50 (SF-295) was 16.6 µM (inactive), the GI50 (DU-145) was > 100 µM (inactive) and the GI50 (HCT-15) was 15.3 µM. For the same compound, the GI50 (LOX IMVI) was 15 µM (inactive), the GI50 (BT-549) was 15.3 µM (inactive) and the GI50 (Hs-578T) was 25 µM (inactive). For the same compound, the GI50 (PC-3) was 14.3 µM (inactive), the GI50 (UACC-62) was 17.9 µM (inactive) and the GI50 (TK-10) was 16.4 µM (inactive). For the same compound, the GI50 (K562) was 26.2 µM (inactive), the GI50 (RXF 393) was 18.1 µM (inactive) and the GI50 (SK-MEL-5) was 15.6 µM (inactive). The GI50 (T47D) was 83.6 µM (inactive), the GI50 (HT-29) was 17.1 µM (inactive) and the GI50 (SN12C) was 15.5 µM (inactive). For the same compound, the GI50 (MCF7) was 17.6 µM (inactive), the GI50 (KM12) was 15.6 µM (inactive) and the GI50 (NCI/ADR-RES) was 14.8 µM (inactive). For the same compound, the GI50 (OVCAR-8) was 15.3 µM (inactive), the GI50 (COLO 205) was 13.9 µM (inactive) and the GI50 (NCI-H522) was 17.5 µM (inactive). For the same compound, the GI50 (HCC 2998) was 16.2 µM (inactive), the GI50 (HL-60) was 16.6 µM (inactive) and the GI50 (SK-MEL-28) was 17.9 µM (inactive). For the same compound, the GI50 (HCT-116) was 17.2 µM (inactive), the GI50 (CCRF-CEM) was 31.5 µM (inactive) and the GI50 (M14) was 16.9 µM (inactive). For the same compound, the GI50 (UACC-257) was 16.9 µM (inactive), the GI50 (SNB-19) was 18.2 µM (inactive) and the GI50 (RPMI-8226) was 19.5 µM (inactive). For the same compound, the GI50 (OVCAR-4) was 13.7 µM (inactive), the GI50 (SR) was 21.1 µM (inactive) and the GI50 (MDA-N) was 17.4 µM (inactive). The GI50 (A549) was 16.1 µM (inactive), the GI50 (MOLT-4) was 15.2 µM (inactive) and the GI50 (786-0) was 15.5 µM (inactive). The GI50 (SF-268) was 16.4 µM (inactive).
N#CCCC1C(C#N)C2CC1C1C3C=CC(C3)C21 (stereo unspecified) was tested, and the GI50 (MDA-MB-435) was > 100 µM (inactive), the GI50 (NCI-H226) was > 100 µM (inactive) and the GI50 (UO-31) was > 100 µM (inactive). The GI50 (EKVX) was > 100 µM (inactive), the GI50 (SK-OV-3) was > 100 µM (inactive) and the GI50 (OVCAR-3) was > 100 µM (inactive). The GI50 (Malme-3M) was > 100 µM (inactive), the GI50 (IGROV-1) was > 100 µM (inactive) and the GI50 (SNB-75) was > 100 µM (inactive). The GI50 (HOP-92) was > 100 µM (inactive), the GI50 (CAKI-1) was > 100 µM (inactive) and the GI50 (ACHN) was > 100 µM (inactive). For the same compound, the GI50 (OVCAR-5) was > 100 µM (inactive), the GI50 (SK-MEL-2) was > 100 µM (inactive) and the GI50 (NCI-H23) was > 100 µM (inactive). The GI50 (SW-620) was > 100 µM (inactive), the GI50 (MDA-MB-231) was > 100 µM (inactive) and the GI50 (SF-295) was > 100 µM (inactive). For the same compound, the GI50 (DU-145) was > 100 µM (inactive), the GI50 (HCT-15) was over 100 µM and the GI50 (LOX IMVI) was > 100 µM (inactive). The GI50 (BT-549) was > 100 µM (inactive), the GI50 (Hs-578T) was > 100 µM (inactive) and the GI50 (PC-3) was > 100 µM (inactive). For the same compound, the GI50 (UACC-62) was > 100 µM (inactive), the GI50 (TK-10) was > 100 µM (inactive) and the GI50 (K562) was > 100 µM (inactive). The GI50 (RXF 393) was 63.4 µM (inactive), the GI50 (SK-MEL-5) was > 100 µM (inactive) and the GI50 (T47D) was > 100 µM (inactive). For the same compound, the GI50 (HT-29) was > 100 µM (inactive), the GI50 (MCF7) was > 100 µM (inactive) and the GI50 (KM12) was > 100 µM (inactive). For the same compound, the GI50 (NCI/ADR-RES) was > 100 µM (inactive), the GI50 (OVCAR-8) was > 100 µM (inactive) and the GI50 (COLO 205) was > 100 µM (inactive). The GI50 (NCI-H522) was > 100 µM (inactive), the GI50 (HCC 2998) was > 100 µM (inactive) and the GI50 (HL-60) was > 100 µM (inactive). For the same compound, the GI50 (SK-MEL-28) was > 100 µM (inactive), the GI50 (HCT-116) was > 100 µM (inactive) and the GI50 (CCRF-CEM) was > 100 µM (inactive). The GI50 (M14) was > 100 µM (inactive), the GI50 (UACC-257) was > 100 µM (inactive) and the GI50 (SNB-19) was > 100 µM (inactive). The GI50 (RPMI-8226) was > 100 µM (inactive), the GI50 (OVCAR-4) was > 100 µM (inactive) and the GI50 (SR) was > 100 µM (inactive). The GI50 (MDA-N) was > 100 µM (inactive), the GI50 (A549) was > 100 µM (inactive) and the GI50 (MOLT-4) was > 100 µM (inactive). The GI50 (786-0) was > 100 µM (inactive) and the GI50 (SF-268) was > 100 µM (inactive).

From ChEMBL document CHEMBL1201862, “PubChem BioAssay data set” (2004)
